Experimental data taken from patent EP2642290A1, “Glatiramer acetate human monocytic cell line-based potency assay” (Synthon BV, priority 2012, dated 2013).
Where “and” joins values, the source holds several entries; their conditions need not be identical. Identical values can stand only once.

Tests used:
THP-1 cells [1] = experiment: Human monocytic cell line-based potency assay: sIL-1Ra expression (ELISA) in THP-1 cells stimulated with PMA and LPS and exposed to glatiramer acetate; conditions: THP-1 cells treated with PMA alone or LPS alone instead of the combination
THP-1 cells [2] = experiment: as above
Description: Human monocytic cells are brought into a suitable medium, e.g. RPMI 1640 medium, and are stimulated with an effective amount of PMA and LPS, contacted with GA (0-250 μg/ml) and the effect on the expression of a monocyte anti-inflammatory cytokine, such as sIL-1Ra, is measured. […] Dose-response curves are generated by GA activation of monocytic cells and EC50 values are calculated using a non-linear four-parameter logistic model on semi-log transformed data, as described in the draft USP chapter <1034> on analysis of biological assays.
• THP-1 cells are harvested and centrifugated at 200g for 5 minutes; • Resuspend the pellet in 10 ml fresh pre-warmed RPMI-1640+10% FBS+2mM L-Glutamine; • Take a sample for cell counting; • After cell count adjust the cell density to 5 x 10^5 cells/ml and add 100 μl of the THP-1 cell suspension to the wells of a 96-wellsplate (Corning Costar #3596); • Fill the boundary wells of the plate with CGM and place the plate temporally into a humidified incubator at 37 ± 1 °C and 5.0 ± 1% CO2.
• In the dilution plate prepare the glatiramer acetate dilution series. The stock concentration is 20 mg/ml, which needs to be diluted in a 96-wellsplate to a working stock concentration of 1.2 mg/ml for the highest dilution on the dilution plate; • Pipette 75 μl RPMI-1640+10% FBS in column 2-8 (row B-G) of the dilution plate and pipette 235 μl RPMI-1640+10% FBS in column 9 (row B-G). Note: Other wells of the dilution 96-wellsplate remain unused; • Add 15 μl of reference glatiramer acetate and the test sample of glatiramer acetate (20 mg/ml) into column 9 (row B-G) of the dilution plate, giving a new concentration of 1.2 mg/ml; • Serially dilute 150 μl down, from column 9 to 2. Mix at each step by pipetting up and down 5 times; • Add 50 μl of the LPS/PMA working solution to the cell plate, with exception of the boundary wells.The final concentrations are 25 ng/ml LPS and 5 ng/ml PMA; • Add 50 μl of the glatiramer acetate dilutions to the plate containing the cells and the LPS and PMA working solution. The final dose-range of glatiramer acetate is between 12.5 and 250 μg/ml; • Incubate cells for 72 hours at 37°C in an incubator with 5% CO2, 93% humidity.
• After 72 hours of incubation centrifuge the 96-well plate at 200g for 5 minutes. • Transfer 150 μl of the cell-free supernatant/well to a storage plate. • Supernatant of the samples will be used for analysis by IL-1Ra/Il-1F3 ELISA. • sIL-1Ra is determined using the sIL-1Ra ELISA kit from Quantikine, R&D, Minneapolis, MN (Cat # DRAOOB) following the manufacturer's instructions. The remainder of the supernatant is stored in a closed storage plate at -80°C.
Data on sIL-1Ra concentration are analyzed for relative potency as described in draft USP chapter <1034> section 3.4 on nonlinear models for quantitative responses. The software package GraphPad Prism (5.x) is used for fitting to a nonlinear model to the data: • sIL-1Ra data (in pg/ml) are plotted against the log transformed glatiramer acetate concentration (in log μg/ml); • A four-parameter logistic model is constructed to fit the dose response curves of the Reference (Ref) and the test batch (TA). […]

With glatiramer acetate the GA-induced cytokine expression (THP-1 cells [1]) was “neither PMA nor LPS treatment of THP-1 cells alone results in GA-induced cytokine expression”, the Bottom (THP-1 cells [2]; bottom asymptote of constrained four-parameter logistic fit of sIL-1Ra response (sIL-1Ra data in pg/ml), 5 ng/ml PMA and 25 ng/ml LPS, 72 hours, four independent curves A-D of the same material, common value) was -4031 and the “Relative potency (%)” value (THP-1 cells [2]; relative to curve A, arbitrarily set at 100%, all curves are 100% samples of the same material, curves A-D) was 100.0% and 128.5% and 118.5% and 107.7%. For the same substance, the EC50 (THP-1 cells [2]; sIL-1Ra response, glatiramer acetate concentration in μg/ml, 5 ng/ml PMA and 25 ng/ml LPS, 72 hours, four independent curves A-D of the same material, in µg/mL) was 42.05 and 54.02 and 49.84 and 45.28, the Slope (THP-1 cells [2]; slope of constrained four-parameter logistic fit of sIL-1Ra response, 5 ng/ml PMA and 25 ng/ml LPS, curves A-D, common value) was 3.306 and the Top (THP-1 cells [2]; top asymptote of constrained four-parameter logistic fit of sIL-1Ra response (sIL-1Ra data in pg/ml), 5 ng/ml PMA and 25 ng/ml LPS, 72 hours, curves A-D, common value) was 53602.
